According to PubChem BioAssay (NCI):
“And” between values parts separate entries of the source, which are not always exact repeats. Equal values may be shown once.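 All cell lines were grown in 96-well plates and treated with compound for 48 hours. GI50 is the concentration that inhibits growth by half. TGI denotes the concentration required for complete inhibition of growth.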

Tests used:
Assay in all cases: NCI tumour cell line growth inhibition, 48 h
UACC-62 melanoma = test system: UACC-62 melanoma
EKVX NSCLC = test system: EKVX NSCLC
HT29 colon = test system: HT29 colon
MCF7 breast = test system: MCF7 breast
HS 578T breast = test system: HS 578T breast
DU-145 prostate = test system: DU-145 prostate
SN12C renal = test system: SN12C renal
SNB-75 CNS = test system: SNB-75 CNS
U251 CNS = test system: U251 CNS
A549 NSCLC = test system: A549 NSCLC

Structure (SMILES)	GI50 (UACC-62 melanoma)	TGI (UACC-62 melanoma)	GI50 (EKVX NSCLC)	TGI (EKVX NSCLC)	GI50 (HT29 colon)	TGI (HT29 colon)	GI50 (MCF7 breast)	TGI (MCF7 breast)	GI50 (HS 578T breast)	TGI (HS 578T breast)	GI50 (DU-145 prostate)	TGI (DU-145 prostate)	GI50 (SN12C renal)	TGI (SN12C renal)	GI50 (SNB-75 CNS)	TGI (SNB-75 CNS)	GI50 (U251 CNS)	TGI (U251 CNS)	GI50 (A549 NSCLC)	TGI (A549 NSCLC)
CCCCN(CCCC)CCCn1c(=O)c2c3ccccc3n(C)c2n2nnc(-c3ccccc3)c12	22.4 µM	84.4 µM	56.3 µM	> 100 µM	7.72 µM	36.3 µM	37.2 µM	> 100 µM	39.9 µM	> 100 µM	47.6 µM	> 100 µM	19.4 µM	94.8 µM	15.1 µM	56.2 µM	32.9 µM	> 100 µM	43.9 µM	> 100 µM
COc1cc(O)c2c(c1)C(=O)c1cc3c(c(O)c1C2=O)C(OC1OC(C)C(O)C(O)C1OC)C(OC)C(C)(O)C3=O (configuration not stated)	1.68 µM	3.16 µM and 4.1 µM	2.74 µM	7.21 µM and 5.39 µM	2.44 µM	11.8 µM and 8.61 µM	–	6.76 µM and 6.4 µM	3.34 µM	19.5 µM	3.11 µM	11.5 µM	–	7.18 µM and 7.44 µM	2.84 µM	15.7 µM and 10.1 µM	2.56 µM	13.2 µM and 11.8 µM	–	12 µM
CNC(=O)Oc1cc(C)c(/C=C/c2cncc(C(=O)NC)c2)c(C)c1	13.2 µM	> 25 µM	> 25 µM	> 25 µM	> 25 µM	> 25 µM	> 25 µM	> 25 µM	12.9 µM	> 25 µM	> 25 µM	> 25 µM	> 25 µM	> 25 µM	9.45 µM	24.6 µM	> 25 µM	> 25 µM	> 25 µM	> 25 µM
c1ccc(CN=C(NCc2ccccc2)NCc2ccccc2)cc1	10.1 µM	22.6 µM	1.85 µM	7.81 µM	5.58 µM	19.8 µM	6.37 µM	19.6 µM	10.3 µM	27.3 µM	5.38 µM	19.4 µM	6.92 µM	24.1 µM	2.37 µM	13 µM	10.2 µM	23.5 µM	11.2 µM	25.3 µM
CCOC(=O)/C(=C(/C)NCC(C)C)c1cc(O)c(O)c2c(C)cc(=O)[nH]c12	7.12 µM	> 100 µM	5.45 µM	> 100 µM	> 100 µM	> 100 µM	4.38 µM	> 100 µM	13.4 µM	57.3 µM	10.5 µM	> 100 µM	4.96 µM	> 100 µM	3.85 µM	29.8 µM	8.68 µM	50.9 µM	7.8 µM	> 100 µM
COc1ccc(OC)c(-c2cc(=O)c3c(OC)c(OC)c(OC)c(OC)c3o2)c1	–	64.3 µM	–	> 100 µM	–	> 100 µM	–	55.5 µM	–	> 100 µM	–	> 100 µM	–	> 100 µM	–	> 100 µM	–	> 100 µM	–	> 100 µM
COC(=O)[C@H](Cc1ccc(O)cc1)NC(=O)[C@@H](OC)[C@@H]1Cc2cc3cc(OC4CC(OC5CC(O)C(O)C(C)O5)C(O)C(C)O4)c(C)c(O)c3c(O)c2C(=O)[C@H]1OC1CC(OC2CC(OC3CC(C)(O)C(O)C(C)O3)C(O)C(C)O2)C(O)C(C)O1 (some centres not stated)	0.0223 µM	0.106 µM	0.152 µM	> 25 µM	0.102 µM	> 25 µM	0.0119 µM	> 25 µM	0.0654 µM	5.36 µM	0.164 µM	> 25 µM	0.0595 µM	> 25 µM	0.0773 µM	1.08 µM	0.113 µM	> 25 µM	0.15 µM	> 25 µM
C/C(=C\COc1c2c(cc3c1CCO3)OC1(C=C2)OC(CC/C(C)=C/COc2c3ccoc3cc3oc(=O)ccc23)C(C)(C)O1)CCC(O)C(C)(C)O (configuration not stated)	4.87 µM	> 100 µM	5.93 µM	> 100 µM	22.4 µM	> 100 µM	5.62 µM	> 100 µM	27.3 µM	> 100 µM	> 100 µM	> 100 µM	89.1 µM	> 100 µM	21.1 µM	> 100 µM	44.4 µM	> 100 µM	13.3 µM	> 100 µM
Cc1ccc(-c2nc(N3CCCNCC3)c3oc(-c4ccccc4)nc3n2)cc1	1.71 µM	3.3 µM	1.81 µM	3.33 µM	1.69 µM	3.15 µM	1.59 µM	3.44 µM	1.94 µM	4.22 µM	1.89 µM	3.4 µM	1.69 µM	3.21 µM	1.41 µM	2.73 µM	1.78 µM	3.17 µM	1.71 µM	3.12 µM
CCc1cc2c(cc1N1CCC(N3CCOCC3)CC1)C(C)(C)c1[nH]c3cc(C#N)ccc3c1C2=O	3.17 µM and 3 µM and 2.64 µM	18.1 µM and 13.7 µM and > 10 µM	1.56 µM and 2.04 µM	6.85 µM and > 10 µM	0.758 µM and 0.853 µM and 1.51 µM	2.54 µM and 3.42 µM and > 10 µM	1.66 µM and 1.64 µM and 1.34 µM	> 23.8 µM and 15.6 µM and > 10 µM	1.21 µM and 1.51 µM and 0.53 µM	4.88 µM and 5.56 µM and 4.22 µM	1.67 µM and 1.46 µM and 1.95 µM	5.96 µM and 3.52 µM and 7.19 µM	2.23 µM and 1.44 µM and 1.55 µM	8.69 µM and 6.23 µM and 4.5 µM	1.03 µM and 1.25 µM and 1.38 µM	2.63 µM and 2.73 µM and 2.9 µM	1.33 µM and 1.43 µM and 1.4 µM	2.76 µM and 3.28 µM and 2.96 µM	1.36 µM and 1.51 µM and 1.31 µM	3.05 µM and 3.88 µM and 3.67 µM
